Measured values from ChEMBL document CHEMBL5729714, “Indazoles as hematopoietic progenitor kinase 1 (HPK1) inhibitors and methods using same” (2023).

The compounds below were run against Mitogen-activated protein kinase kinase kinase kinase 1 (Homo sapiens, UniProt Q92918) (assay: ADP-Glo kinase assay: HPK1 kinase activity was measured by Promega's ADP-Glo™ kinase assay. In this assay, 5 ng of recombinant human HPK1 (signalchem) is incubated with 5 μL of compounds (0.5% DMSO), 5 μL of MBP (0.5 μg/μl) and 5 μL of ATP (25 μM) in buffer (40 mM Tris, 7.5; 20 mM MgCl2; 0.1 mg/ml BSA; 5 μM DTT). The assay was started by incubating the reaction mixture in a 96-well plate at 30′ C for 40 minutes. After the incubation, 25 uL ADP-Glo reagent was added and the reaction was incubated at room temperature for 40-min to stop the reaction and degrade residual ATP. The ADP product was then converted to ATP by adding 50 uL per well of detection reagent. Luminescence was detected after 30-min room temperature incubation with the Molecular device I3X plate reader. The IC50 values were calculated from a series of percent inhibition values determined at a range of inhibitor concentration using software routines as implemented in the GraphPad Prism 7 software and SigmaPlot13.0.).
Chain of Mitogen-activated protein kinase kinase kinase kinase 1 (Q92918 whole entry): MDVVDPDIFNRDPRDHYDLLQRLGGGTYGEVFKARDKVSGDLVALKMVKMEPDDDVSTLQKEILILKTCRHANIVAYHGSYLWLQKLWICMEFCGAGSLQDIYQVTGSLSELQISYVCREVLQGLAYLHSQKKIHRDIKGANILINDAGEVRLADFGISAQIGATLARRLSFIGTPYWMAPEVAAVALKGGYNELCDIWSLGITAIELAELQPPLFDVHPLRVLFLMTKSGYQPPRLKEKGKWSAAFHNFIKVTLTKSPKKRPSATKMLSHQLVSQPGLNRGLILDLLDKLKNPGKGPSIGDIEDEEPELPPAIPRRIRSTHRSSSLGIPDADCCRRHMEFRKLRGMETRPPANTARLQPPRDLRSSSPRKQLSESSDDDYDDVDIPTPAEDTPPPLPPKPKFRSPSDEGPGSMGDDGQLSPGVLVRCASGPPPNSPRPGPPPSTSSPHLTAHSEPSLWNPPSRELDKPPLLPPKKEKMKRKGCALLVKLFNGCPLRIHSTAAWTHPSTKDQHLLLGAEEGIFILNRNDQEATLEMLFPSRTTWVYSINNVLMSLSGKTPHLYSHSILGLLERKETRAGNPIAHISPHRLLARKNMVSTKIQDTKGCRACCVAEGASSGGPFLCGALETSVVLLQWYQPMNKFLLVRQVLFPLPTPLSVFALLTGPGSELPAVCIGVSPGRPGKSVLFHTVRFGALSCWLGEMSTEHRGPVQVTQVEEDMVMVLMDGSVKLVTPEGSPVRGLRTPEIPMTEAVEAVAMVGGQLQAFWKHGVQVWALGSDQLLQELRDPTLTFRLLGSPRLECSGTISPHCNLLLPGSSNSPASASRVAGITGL

Going from `Cc1c(F)c(S(C)(=O)=O)c2[nH]ncc2c1-c1ccc2nc(NC(=O)[C@@H]3C[C@@H]3F)sc2n1` to `CSc1c(F)c(C)c(-c2ccc3nc(NC(=O)[C@@H]4C[C@@H]4F)sc3n2)c2cn[nH]c12`, the IC50 falls from greater than 1000 nM to less than 100 nM. The second is the more potent here.

`CSc1c(F)c(C)c(-c2ccn3nc(NC(=O)[C@H]4C[C@@H]4F)cc3c2)c2cn[nH]c12` and `CSc1c(F)c(C)c(-c2ccn3nc(NC(=O)[C@@H]4C[C@H]4F)cc3c2)c2cn[nH]c12` cannot be ordered by IC50: less than 100 nM for the first, less than 100 nM for the second.

`CC(=O)Nc1c(F)c(C)c(-c2ccn3nc(NC(=O)[C@@H]4C[C@@H]4F)cc3c2)c2cn[nH]c12` and `CC(=O)N(C)c1c(F)c(C)c(-c2ccn3nc(NC(=O)[C@@H]4C[C@@H]4F)cc3c2)c2cn[nH]c12` cannot be ordered by IC50: less than 100 nM for the first, less than 100 nM for the second.

`O=C(Nc1cn2cc(-c3c(Cl)c(F)c(CO)c4[nH]ncc34)ccc2n1)[C@@H]1C[C@@H]1F` and `CSCc1c(F)c(Cl)c(-c2ccc3nc(NC(=O)[C@@H]4C[C@@H]4F)cn3c2)c2cn[nH]c12` cannot be ordered by IC50: less than 100 nM for the first, less than 100 nM for the second.

`O=C(Nc1nc2ccc(-c3c(Cl)c(F)c(N4CCCC4)c4[nH]ncc34)cc2s1)[C@@H]1C[C@@H]1F` and `N#Cc1c(F)c(Cl)c(-c2ccc3nc(NC(=O)[C@@H]4C[C@@H]4F)sc3c2)c2cn[nH]c12` cannot be ordered by IC50: less than 100 nM for the first, less than 100 nM for the second.

`N#CCSc1c(F)c(Cl)c(-c2ccn3nc(NC(=O)[C@@H]4C[C@@H]4F)cc3c2)c2cn[nH]c12` and `O=C(Nc1cc2cc(-c3c(Cl)c(F)c(CO)c4[nH]ncc34)ccn2n1)[C@@H]1C[C@@H]1F` cannot be ordered by IC50: less than 100 nM for the first, less than 100 nM for the second.

`CCN(C)c1c(F)c(C)c(-c2ccc3nc(NC(=O)[C@@H]4C[C@@H]4F)sc3c2)c2cn[nH]c12` and `CCN(C)c1c(F)c(C)c(-c2ccc3nc(NC(=O)[C@@H]4C[C@@H]4F)sc3n2)c2cn[nH]c12` cannot be ordered by IC50: less than 100 nM for the first, less than 100 nM for the second.

`Cn1ccnc1Sc1c(F)c(Cl)c(-c2ccc3nc(NC(=O)[C@@H]4C[C@@H]4F)cn3c2)c2cn[nH]c12` and `Cn1cccc1-c1c(F)c(Cl)c(-c2ccc3nc(NC(=O)[C@@H]4C[C@@H]4F)cn3c2)c2cn[nH]c12` cannot be ordered by IC50: less than 100 nM for the first, less than 100 nM for the second.

`CS(=O)(=O)Cc1c(F)c(Cl)c(-c2ccc3nc(NC(=O)[C@@H]4C[C@@H]4F)cn3c2)c2cn[nH]c12` and `C[S+]([O-])Cc1c(F)c(Cl)c(-c2ccc3nc(NC(=O)[C@@H]4C[C@@H]4F)cn3c2)c2cn[nH]c12` (some centres undefined) cannot be ordered by IC50: less than 100 nM for the first, less than 100 nM for the second.

`O=C(Nc1cn2cc(-c3c(Br)c(F)cc4[nH]ncc34)ccc2n1)[C@@H]1C[C@@H]1F` and `CC(O)c1c(F)c(Cl)c(-c2ccc3nc(NC(=O)[C@@H]4C[C@@H]4F)cn3c2)c2cn[nH]c12` (some centres undefined) cannot be ordered by IC50: less than 100 nM for the first, less than 100 nM for the second.

`CCc1c(F)c(SC(C)C#N)c2[nH]ncc2c1-c1ccn2nc(NC(=O)[C@@H]3C[C@@H]3F)cc2c1` (some centres undefined) and `CSc1c(F)c(C)c(-c2ccn3nc(NC(=O)[C@H]4C[C@H]4F)cc3c2)c2cn[nH]c12` cannot be ordered by IC50: less than 100 nM for the first, less than 100 nM for the second.

`CC(c1c(F)c(Cl)c(-c2ccc3nc(NC(=O)[C@@H]4C[C@@H]4F)cn3c2)c2cn[nH]c12)n1ncnn1` (some centres undefined) and `CC(F)c1c(F)c(Cl)c(-c2ccc3nc(NC(=O)[C@@H]4C[C@@H]4F)cn3c2)c2cn[nH]c12` (some centres undefined) cannot be ordered by IC50: less than 100 nM for the first, less than 100 nM for the second.

`O=C(Nc1cc2cc(-c3c(Cl)c(F)c(C(O)C(F)(F)F)c4[nH]ncc34)ccn2n1)[C@@H]1C[C@@H]1F` (some centres undefined) and `O=C(Nc1cn2cc(-c3c(Cl)c(F)c(C(O)C(F)(F)F)c4[nH]ncc34)ccc2n1)[C@@H]1C[C@@H]1F` (some centres undefined) cannot be ordered by IC50: less than 100 nM for the first, less than 100 nM for the second.

`CNC(=O)CSc1c(F)c(Cl)c(-c2ccc3nc(NC(=O)[C@@H]4C[C@@H]4F)sc3c2)c2cn[nH]c12` and `CSc1c(F)c(SC)c2[nH]ncc2c1-c1ccc2nc(NC(=O)[C@@H]3C[C@@H]3F)sc2c1` cannot be ordered by IC50: less than 100 nM for the first, less than 100 nM for the second.

`CC(Nc1c(F)c(Cl)c(-c2ccc3nc(NC(=O)[C@@H]4C[C@@H]4F)cn3c2)c2cn[nH]c12)C(=O)N(C)C` (some centres undefined) and `CSC(C)c1c(F)c(Cl)c(-c2ccc3nc(NC(=O)[C@@H]4C[C@@H]4F)cn3c2)c2cn[nH]c12` (some centres undefined) cannot be ordered by IC50: less than 100 nM for the first, less than 100 nM for the second.

`CCN(C)c1c(F)c(C)c(-c2ccc3nc(NC(=O)[C@@H]4C[C@@H]4F)cn3c2)c2cn[nH]c12` and `CC(=O)N(C)c1c(F)c(C)c(-c2ccc3nc(NC(=O)[C@@H]4C[C@@H]4F)cn3c2)c2cn[nH]c12` cannot be ordered by IC50: less than 100 nM for the first, less than 100 nM for the second.

`O=C(Nc1cc2cc(-c3c(C(F)(F)F)c(F)cc4[nH]ncc34)ccn2n1)[C@@H]1C[C@@H]1F` and `Cc1c(F)c([S+](C)[O-])c2[nH]ncc2c1-c1ccn2nc(NC(=O)[C@@H]3C[C@@H]3F)cc2c1` (some centres undefined) cannot be ordered by IC50: less than 100 nM for the first, less than 100 nM for the second.

`C=Cc1c(F)cc2[nH]ncc2c1-c1ccc2nc(NC(=O)[C@@H]3C[C@@H]3F)sc2c1` and `CCN(C)c1c(F)c(Cl)c(-c2ccc3nc(NC(=O)[C@@H]4C[C@@H]4F)sc3n2)c2cn[nH]c12` cannot be ordered by IC50: less than 100 nM for the first, less than 100 nM for the second.

`O=C(Nc1cn2cc(-c3c(Cl)c(F)c(NC4CCOC4)c4[nH]ncc34)ccc2n1)[C@@H]1C[C@@H]1F` (some centres undefined) and `O=C(Nc1cn2cc(-c3c(Cl)c(F)c(NC4=NCCN4)c4[nH]ncc34)ccc2n1)[C@@H]1C[C@@H]1F` cannot be ordered by IC50: less than 100 nM for the first, less than 100 nM for the second.

`Cn1nccc1-c1c(F)c(Cl)c(-c2ccc3nc(NC(=O)[C@@H]4C[C@@H]4F)cn3c2)c2cn[nH]c12` and `Cn1ccc(-c2c(F)c(Cl)c(-c3ccc4nc(NC(=O)[C@@H]5C[C@@H]5F)cn4c3)c3cn[nH]c23)c1` cannot be ordered by IC50: less than 100 nM for the first, less than 100 nM for the second.

`CCOC(c1c(F)c(Cl)c(-c2ccc3nc(NC(=O)[C@@H]4C[C@@H]4F)cn3c2)c2cn[nH]c12)C(F)(F)F` (some centres undefined) and `COC(c1c(F)c(Cl)c(-c2ccc3nc(NC(=O)[C@@H]4C[C@@H]4F)cn3c2)c2cn[nH]c12)C(F)(F)F` (some centres undefined) cannot be ordered by IC50: less than 100 nM for the first, less than 100 nM for the second.

`COC(C)c1c(F)c(Cl)c(-c2ccc3nc(NC(=O)[C@@H]4C[C@@H]4F)cn3c2)c2cn[nH]c12` (some centres undefined) and `O=C(Nc1cn2cc(-c3c(Cl)c(F)c(C(F)C(F)(F)F)c4[nH]ncc34)ccc2n1)[C@@H]1C[C@@H]1F` (some centres undefined) cannot be ordered by IC50: less than 100 nM for the first, less than 100 nM for the second.

`N#CC(NC=O)c1c(F)c(Cl)c(-c2ccc3nc(NC(=O)[C@@H]4C[C@@H]4F)cn3c2)c2cn[nH]c12` (some centres undefined) and `O=C(Nc1cn2cc(-c3c(Cl)c(F)c(-c4cc[nH]c4)c4[nH]ncc34)ccc2n1)[C@@H]1C[C@@H]1F` cannot be ordered by IC50: less than 100 nM for the first, less than 100 nM for the second.

`CSc1c(F)c(C)c(-c2ccn3nc(NC(=O)C4CC4)cc3c2)c2cn[nH]c12` and `O=C(Nc1cn2cc(-c3c(Cl)c(F)c(CN4CCCC4)c4[nH]ncc34)ccc2n1)[C@@H]1C[C@@H]1F` cannot be ordered by IC50: less than 100 nM for the first, less than 100 nM for the second.

`CC(=O)N(C)c1c(F)c(C)c(-c2ccc3nc(NC(=O)[C@@H]4C[C@@H]4F)sc3n2)c2cn[nH]c12` was tested, and the IC50 was less than 100 nM.
